Results as given in US9839639B2, “Neprilysin inhibitors” (THERAVANCE BIOPHARMA R&D IP, LLC, priority 2014, dated 2017).

Experiments:
human NEP = biological target: T1, human NEP (Homo sapiens, UniProt P08473); assay: In vitro enzyme inhibition assay, inhibitor potency at human NEP; format: biochemical; conditions: recombinant human NEP, fluorogenic peptide substrate 10 μM, 37° C.; values given as ranges
T1 construct: purchased R&D Systems, Minneapolis, Minn; 1182-ZN
Description: The inhibitory activities of compounds at human and rat neprilysin (EC 3.4.24.11; NEP) and human angiotensin converting enzyme (ACE) were determined using in vitro assays as described below.
Recombinant human NEP and recombinant human ACE were obtained commercially (R&D Systems, Minneapolis, Minn., catalog numbers 1182-ZN and 929-ZN, respectively). The fluorogenic peptide substrate Mca-D-Arg-Arg-Leu-Dap-(Dnp)-OH (Medeiros et al. (1997) Braz. J. Med. Biol. Res. 30:1157-62; Anaspec, San Jose, Calif.) and Abz-Phe-Arg-Lys(Dnp)-Pro-OH (Araujo et al. (2000) Biochemistry 39:8519-8525; Bachem, Torrance, Calif.) were used in the NEP and ACE assays respectively.
The assays were performed in 384-well white opaque plates at 37° C. using the fluorogenic peptide substrates at a concentration of 10 μM in Assay Buffer (NEP: 50 mM HEPES, pH 7.5, 100 mM NaCl, 0.01% polyethylene glycol sorbitan monolaurate (Tween-20), 10 μM ZnSO4; ACE: 50 mM HEPES, pH 7.5, 100 mM NaCl, 0.01% Tween-20, 1 μM ZnSO4).
Test compounds were assayed over the range of concentrations from 10 μM to 20 pM. Test compounds were added to the enzymes and incubated for 30 minute at 37° C. prior to initiating the reaction by the addition of substrate. Reactions were terminated after 20 minutes of incubation at 37° C. by the addition of glacial acetic acid to a final concentration of 3.6% (v/v).
Plates were read on a fluorometer with excitation and emission wavelengths set to 320 nm and 405 nm, respectively. Inhibition constants were obtained by nonlinear regression of the data using the equation (GraphPad Software, Inc., San Diego, Calif.): v=v0/[1+(I/K′)] where v is the reaction rate, v0 is the uninhibited reaction rate, I is the inhibitor concentration and K′ is the apparent inhibition constant.
Compounds of the invention were tested in this assay and found to have pKi values at human NEP as follows.

[1] = Rat PO cassette assay (oral bioavailability); format: in vivo; conditions: plasma, male Sprague-Dawley rats, single oral gavage vs intravenous dose, 0.5 mg/kg, read-out: % F (oral bioavailability)
Excerpt: Oral bioavailability, or % F, is a measure of the percentage of a drug in an oral dose that actually reaches the systemic circulation. Compound losses can occur due to incomplete formulation dissolution, incomplete absorption due to compound insolubility or instability along the GI, or metabolism in the gut or across the gut wall. The fraction of the dose which reaches the hepatic portal vein must also then pass through the liver before reaching the systemic circulation. Compound metabolism, or “first-pass extraction,” can occur during this initial passage through the liver, and this is an additional potential source of compound loss. Oral bioavailability is calculated as the dose-normalized ratio of drug exposure after an oral dose to that after an intravenous dose, wherein the entire dose is delivered directly to the systemic circulation.
Each cassette study begins with 10 mM DMSO stock solutions of up to 5 different compounds. Typically, compounds are selected such no two compounds dosed in the same cassette have a molecular weight within 5 Da of each other. This simplifies subsequent bioanalysis. Appropriate volumes of each DMSO stock are added into a volume of vehicle (5% sodium bicarbonate, 5% dextrose in H2O) such that the final concentration of each compound is 0.25 mg/mL. Intravenous dosing solutions are sterile-filtered (0.2 μm) prior to dosing.
Pre-cannulated male Sprague-Dawley rats (3 per cassette per route) between 8 and 10 weeks of age were obtained from Harlan Laboratories (Indianapolis, Ind.). Rats received either a single oral gavage or a single intravenous (via lateral tail vein) dose (2 mL/kg) of the dosing solution. The final dose was 0.5 mg/kg. Serial blood samples were harvested via jugular vein cannula at 3 minutes, 15 minutes, 30 minutes, 1 hours, 2 hours, 4 hours, 6 hours, and 24 hours post-dose. Sampling was performed either manually or using automated blood samplers. Samples were collected into microtainer tubes containing EDTA as the anticoagulant and are processed to plasma by refrigerated centrifugation.
Plasma samples were extracted with 3 volumes of MeCN containing a suitable internal standard. Extracts were reconstituted into 3 volumes of water containing 1% formic acid, and analyzed via HPLC-coupled MS/MS. Plasma concentration-time data were analyzed using the Phoenix software (Pharsight Corp., St. Louis, Mo.) to calculate pharmacokinetic parameters.
Compounds of the invention of particular interest were those having a % F>10%, when tested in this assay.

T1 sequence (P08473 52-750 limits assumed): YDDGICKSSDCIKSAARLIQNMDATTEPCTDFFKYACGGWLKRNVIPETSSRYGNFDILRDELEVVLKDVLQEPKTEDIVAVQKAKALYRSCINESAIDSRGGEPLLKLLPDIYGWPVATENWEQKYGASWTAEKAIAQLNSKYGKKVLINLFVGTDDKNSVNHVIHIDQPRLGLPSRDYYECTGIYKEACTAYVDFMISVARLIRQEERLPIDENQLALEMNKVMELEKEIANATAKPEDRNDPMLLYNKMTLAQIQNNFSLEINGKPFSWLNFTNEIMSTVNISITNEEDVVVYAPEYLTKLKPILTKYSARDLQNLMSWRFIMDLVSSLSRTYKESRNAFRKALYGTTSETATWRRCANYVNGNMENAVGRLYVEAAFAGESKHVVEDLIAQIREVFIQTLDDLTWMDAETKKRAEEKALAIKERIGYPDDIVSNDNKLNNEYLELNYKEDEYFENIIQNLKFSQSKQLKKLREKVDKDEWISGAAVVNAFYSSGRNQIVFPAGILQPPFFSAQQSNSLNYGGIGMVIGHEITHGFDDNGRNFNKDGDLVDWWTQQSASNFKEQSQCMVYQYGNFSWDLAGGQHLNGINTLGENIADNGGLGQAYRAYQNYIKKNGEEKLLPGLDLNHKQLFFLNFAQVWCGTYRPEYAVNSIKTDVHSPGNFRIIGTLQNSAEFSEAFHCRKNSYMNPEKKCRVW

Compound | Ki (human NEP) [nM] | bioavailability [1] [%]
CCOC[C@](C)(C[C@@H](Cc1ccc(-c2cc(Cl)ccc2F)cc1)NC(=O)c1n[nH]nc1C)C(=O)O [Example 11-4, (2S,4R)-5-(5′-Chloro-2′-fluorobiphenyl-4-yl)-2-ethoxymethyl-2-methyl-4-[(5-methyl-2H-[1,2,3]triazole-4-carbonyl)amino]pentanoic acid] | 1.26 to 3.16 | > 10
COC[C@](C)(C[C@@H](Cc1ccc(-c2cc(Cl)ccc2F)cc1)NC(=O)c1ncccn1)C(=O)O [Example 8-4, (2S,4R)-5-(5′-Chloro-2′-fluorobiphenyl-4-yl)-2-methoxymethyl-2-methyl-4-[(pyrimidine-2-carbonyl)amino]pentanoic acid] | ≤ 1 | –
COC[C@](C)(C[C@@H](Cc1ccc(-c2cc(Cl)ccc2F)cc1)NC(=O)c1ncc(C)o1)C(=O)O [Example 8-1, (2S,4R)-5-(5′-Chloro-2′-fluorobiphenyl-4-yl)-2-methoxymethyl-2-methyl-4-[(5-methyloxazole-2-carbonyl)amino]pentanoic acid] | ≤ 1 | –
COC[C@](C)(C[C@@H](Cc1ccc(-c2cc(Cl)ccc2F)cc1)NC(=O)c1cn(CCO)nn1)C(=O)O [Example 8-10, (2S,4R)-5-(5′-Chloro-2′-fluorobiphenyl-4-yl)-4-{[1-(2-hydroxyethyl)-1H-[1,2,3]triazole-4-carbonyl]amino}-2-methoxymethyl-2-methylpentanoic acid] | 1.26 to 3.16 | –
CC(=O)c1cc(C(=O)N[C@H](Cc2ccc(-c3cc(Cl)ccc3F)cc2)C[C@@](C)(CN)C(=O)O)[nH]n1 [Example 4-1, (2S,4R)-4-[(5-Acetyl-2H-pyrazole-3-carbonyl)-amino]-2-aminomethyl-5-(5′-chloro-2′-fluorobiphenyl-4-yl)-2-methylpentanoic acid] | 3.98 to 10 | –
CCOC[C@](C)(C[C@@H](Cc1ccc(-c2cc(Cl)ccc2F)cc1)NC(=O)c1ccc(Cl)cn1)C(=O)O [Example 11-2, (2S,4R)-5-(5′-Chloro-2′-fluorobiphenyl-4-yl)-4-[(5-chloropyridine-2-carbonyl)amino]-2-ethoxymethyl-2-methylpentanoic acid] | ≤ 1 | –

Second part, the molecule after the results:

Ki (human NEP) [nM] | bioavailability [1] [%] | Compound
≤ 1 | > 10 | CCCC(CO)(C[C@@H](Cc1ccc(-c2cc(Cl)ccc2F)cc1)NC(=O)c1cnn[nH]1)C(=O)O (single isomer, unassigned) [Example 15a]
≤ 1 | > 10 | CCC(CO)(C[C@@H](Cc1ccc(-c2cc(Cl)ccc2F)cc1)NC(=O)c1cnn[nH]1)C(=O)O (single isomer, unassigned) [Example 14a]
≤ 1 | > 10 | O=C(N[C@H](Cc1ccc(-c2cc(Cl)ccc2F)cc1)CC1(C(=O)O)CCOC1)c1cnn[nH]1 (single isomer, unassigned) [Example 20a]
≤ 1 | > 10 | CCOC[C@](C)(C[C@@H](Cc1ccc(-c2cccc(Cl)c2)cc1)NC(=O)c1noc(=O)[nH]1)C(=O)O [Example 9, (2S,4R)-5-(3′-Chlorobiphenyl-4-yl)-2-ethoxymethyl-2-methyl-4-[(5-oxo-4,5-dihydro-[1,2,4]oxadiazole-3-carbonyl)amino]pentanoic Acid]
